Test results published in US20220040280A1, “INHIBITORS AND USES THEREOF” (UNIVERSITY OF CANBERRA, priority 2016, published 2022).

How the values were obtained:
[1] = test system: cell surface vimentin (CSV); test: Confocal microscopy of cell surface vimentin in xenografted MDA-MB-231 cells; format: in vivo, mouse; settings: xenograft MDA-MB-231 cells; Abraxane 60 mg/kg, Phenelzine 41 mg/kg, FIG. 10
Text: (§1) Cells were probed with either rabbit antibodies to LSD1s111p (Merck ABE1462), EGFR (AB2430), MET (ab51067), PD-L1 (sc-50298), goat antibodies to PD-L1 (sc-19091), SC-14033), (sc-19096), mouse antibodies to Cytokeratin (Miltenyi 130-090-866), CSV (Abnova H00007431-M08), vimentin (SC-6260) followed by visualisation with secondary anti mouse Alexa-Fluor 568 (A10037), secondary anti rabbit Alexa-Fluor 488 (A21206) or secondary anti goat Alexa-Fluor 633 (A21082).

[2] = test system: cytokeratin; settings: CTCs from two metastatic breast cancer patient liquid biopsies, FIG. 16
Procedure: (§4) Cells were permeabilised by incubating with 2% Triton X-100 for 20 min. Cells were probed with either rabbit antibodies to LSD1s111p (Merck ABE1462), EGFR (AB2430), MET (ab51067), PD-L1 (sc-50298), goat antibodies to PD-L1 (sc-19091), SC-14033), (sc-19096), mouse antibodies to Cytokeratin (Miltenyi 130-090-866), CSV (Abnova H00007431-M08), vimentin (SC-6260) followed by visualisation with secondary anti mouse Alexa-Fluor 568 (A10037), secondary anti rabbit Alexa-Fluor 488 (A21206) or secondary anti goat Alexa-Fluor 633 (A21082). Cover slips were mounted on glass microscope slides with ProLong Diamond Antifade© reagent (Life Technologies). Antibody staining was localised by confocal laser scanning microscopy. Single 0.5 μm sections were obtained using a Nikon x 60 oil immersion lens on the Nikon C1 plus confocal system running NIS-Elements AR 3.2 software. […] Digital confocal images were analysed using ImageJ software (ImageJ, NIH, Bethesda, Md., USA) to determine the nuclear/cytoplasmic fluorescence ratio (Fn/c) using the equation: Fn/c=(Fn−Fb)/(Fc−Fb), where Fn is nuclear fluorescence, Fc is cytoplasmic fluorescence, and Fb is background fluorescence or the Total Nuclear Fluorescence (TNFI), the Total Cytoplasmic Fluorescence (TCFI) or Total cell fluorescence. […] Florescence intensity was also measured in a minimum of n=10 cells for each sample set. […]

[3] = test system: LSD1s111p; test: Confocal microscopy of LSD1s111p in xenografted MDA-MB-231 cells; format: in vivo, mouse; settings: xenograft MDA-MB-231 cells; Abraxane 60 mg/kg, Docetaxel 10 mg/kg, Phenelzine 41 mg/kg; relative to vehicle control
Text: as §1
The nuclear intensity of LSD1s111p was measured using confocal laser scanning microscopy in xenografted MDA-MB-231 cells treated with vehicle alone or Abraxene (60 mg/kg) or Docetaxel (10 mg/kg). Cells were fixed with 3.7% formaldehyde and permeabilized with 2% Triton-X-100, and then probed with a primary rabbit antibody to LSD1s111p, followed by the corresponding secondary antibody conjugated to Alexa-Fluor 488. Total nuclear fluorescence (TNFI) values for xenografted MDA-MB-231 cells were calculated. Data shown represents the mean±SE for at least 20 individual cells.

[4] = test system: cytokeratin; test: Confocal microscopy of cytokeratin in xenografted MDA-MB-231 cells; format: in vivo, mouse; settings: xenograft MDA-MB-231 cells; Abraxane 60 mg/kg, Phenelzine 41 mg/kg, FIG. 9
Text: as §1

[5] = molecular target: T1, LSD1s111p (Homo sapiens, UniProt O60341); test: Confocal microscopy of LSD1s111p in patient circulating tumor cells; format: cell-based; settings: CTCs from two metastatic breast cancer patient liquid biopsies, FIG. 16
T1 construct: endogenous in cells; host or cells: circulating tumor cells from metastatic breast cancer patient blood
Text: as §1

[6] = test system: EGFR; test: Confocal microscopy of EGFR in xenografted MDA-MB-231 cells; format: in vivo, mouse; settings: xenograft MDA-MB-231 cells; Abraxane 60 mg/kg, Docetaxel 10 mg/kg, Phenelzine 41 mg/kg; relative to vehicle control
Text: as §1

[7] = test system: PD-L1; test: Confocal microscopy of PD-L1 in xenografted MDA-MB-231 cells; format: in vivo, mouse; settings: xenograft MDA-MB-231 cells; Abraxane 60 mg/kg, Phenelzine 41 mg/kg, FIG. 9
Text: as §1

[8] = test system: PD-L2; settings: CTCs from two metastatic breast cancer patient liquid biopsies, FIG. 16
Procedure: as §4

[9] = test system: SNAIL; settings: CTCs from metastatic breast cancer patients, in all but one patient, FIG. 17
Procedure: as §4

[10] = test system: PD-L1; settings: CTCs from metastatic breast cancer patients, in all but one patient, FIG. 17
Procedure: as §4

[11] = test system: SNAIL; test: Nuclear SNAIL in MCF7 cells treated with LSD1 inhibitors, confocal microscopy; format: cell-based, human; settings: MCF7 cells stimulated with PMA for 60 hours, FIGS. 28 and 29
Procedure: (§2) Confocal laser scanning microscopy was performed on either MDA-MB-231 cells treated with vehicle alone or MCF7 cells treated with vehicle alone or PMA for 60 h, and subsequently treated with a test inhibitor or vehicle alone. Test inhibitors include LSD1 siRNA or LSD1 catalytic inhibitors NCD36 (2-[N-(4-phenylbenzenecarbonyl)]amino-6-(trans-2-phenylcyclopropan-1-amino)-N-(3-methylbenzyl)hexanamide hydrochloride) or pargyline (Parg). Cells were fixed with 3.7% formaldehyde and permeabilized with 2% Triton-X-100, and then probed with a primary mouse antibody to LSD1 and a primary goat antibody to SNAIL, respectively, followed by the corresponding secondary antibodies conjugated to Alexa-Fluor 488 and […], respectively. TNFI values for MDA-MB-231, non-stimulated MCF7 and stimulated MCF7 cells were calculated. Data shown represent the mean±SE for at least 20 individual cells.

[12] = molecular target: T2, LSD1 (Homo sapiens, UniProt O60341); test: Nuclear LSD1 in MDA-MB-231 cells treated with LSD1 inhibitors, confocal microscopy; format: cell-based; settings: FIG. 30
T2 construct: endogenous in cells; host or cells: MCF7 (non-stimulated or PMA-stimulated) and MDA-MB-231 breast cancer cells
Procedure: as §2

[13] = test system: SNAIL; test: Nuclear SNAIL in MDA-MB-231 cells treated with LSD1 inhibitors, confocal microscopy; format: cell-based, human; settings: FIG. 30
Procedure: as §2

[14] = molecular target: T2, LSD1; test: Nuclear LSD1 in MCF7 cells treated with LSD1 inhibitors, confocal microscopy; format: cell-based; settings: MCF7 cells stimulated with PMA for 60 hours, FIGS. 28 and 29
Procedure: as §2

[15] = test system: LSD1 phosphorylated at serine 111 (LSD1s111p); test: LSD1s111p in MDA-MB-231 cells treated with PKC inhibitors, confocal microscopy; format: cell-based, human; settings: FIG. 26
Procedure: (§3) Confocal laser scanning microscopy was performed on either MDA-MB-231 cells treated with vehicle alone or MCF7 cells treated with vehicle alone or PMA for 60 hours. To assess the effect of the PKC inhibitors, C27 (Compound 27; (R)-2-((S)-4-(3-chloro-5-fluoro-6-(1H-pyrazolo[3,4-b]pyridine-3-yl)pyridine-2-yl)piperazin-2-yl)-3-methylbutan-2-ol; see Jimenez et al. (2013) J. Med. Chem., 56(5): 1799-1810) or bisindolylmaleimide (BIM), cells were then treated with C27, BIM or vehicle. Cells were fixed with 3.7% formaldehyde and permeabilized with 2% Triton-X-100, and were then probed with primary rabbit antibody to PKC-θ and a primary mouse antibody to LSD1 or LSD1 phosphorylated at serine 111 (LSD1s111p), respectively, followed by the corresponding secondary antibody conjugated to Alexa-Fluor 488 or Alexa-Fluor 568. Total nuclear fluorescence (TNFI) values for non-stimulated and stimulated MCF7 and MDA-MB-231 cells were calculated. […] The plot-profile feature of ImageJ was used to plot the fluorescence signal intensity along a single line spanning the nucleus (n=5 lines per nucleus, 5 individual cells). The average fluorescence signal intensity for the indicated pair of antibodies was plotted for each point on the line with SE. […] The PCC was determined for each plot profile, which indicates the strength of relation between the two fluorochrome signals for at least 20 individual cells ±SE. […]

[16] = test system: LSD1 phosphorylated at serine 111 (LSD1s111p); test: LSD1s111p in MCF7 cells treated with PKC inhibitors, confocal microscopy; format: cell-based, human; settings: FIG. 26
Procedure: as §3

[17] = test system: MET; test: Confocal microscopy of MET in xenografted MDA-MB-231 cells; format: in vivo, mouse; settings: xenograft MDA-MB-231 cells; Abraxane 60 mg/kg, Docetaxel 10 mg/kg, FIG. 11
Text: as §1

[18] = test system: SNAIL; test: Confocal microscopy of SNAIL in xenografted MDA-MB-231 cells; format: in vivo, mouse; settings: xenograft MDA-MB-231 cells; Abraxane 60 mg/kg, Docetaxel 10 mg/kg; relative to vehicle
Text: as §1

Row | Compound | expression of cytokeratin (TCFI) [2] | LSD1s111p expression, nuclear fluorescent signal (TNFI) [3] | expression of LSD1s111p (TCFI) [5] | EGFR nuclear expression (TNFI) [6] | expression of PD-L2 (TCFI) [8] | SNAIL expression (total cell fluorescence) [9] | PD-L1 expression (total cell fluorescence) [10] | nuclear fluorescence signal of SNAIL [11] | nuclear fluorescence signal of LSD1 [12] | nuclear fluorescence signal of SNAIL [13] | nuclear fluorescence signal of LSD1 [14] | LSD1 phosphorylation (LSD1s111p, TNFI) [15] | LSD1 phosphorylation (LSD1s111p, TNFI) [16] | also measured
1 | NNCCc1ccccc1 [Phenelzine, (+)-2-phenylethylhydrazine] | significant knockdown | inhibitory effect | significant knockdown | inhibitory effect | significant knockdown | significant knockdown | significant knockdown | – | – | – | – | – | – | cell surface vimentin (CSV) cytoplasmic expression (TCFI) [1]: abrogated; cytokeratin expression [4]: abrogated; PD-L1 expression in the cytoplasm (TCFI) [7]: significantly abrogated; PD-L1 expression in the nucleus (TNFI) [7]: significantly abrogated; PD-L1 nuclear bias (Fn/c) [7]: higher; total PD-L1 expression [7]: significantly reduced
2 | Cc1cccc(CNC(=O)C(CCCCN[C@@H]2C[C@H]2c2ccccc2)NC(=O)c2ccc(-c3ccccc3)cc2)c1.Cl (relative stereo) [NCD36, 2-[N-(4-phenylbenzenecarbonyl)]amino-6-(trans-2-phenylcyclopropan-1-amino)-N-(3-methylbenzyl)hexanamide hydrochloride] | – | – | – | – | – | – | – | significantly abrogated | significantly abrogated | significantly abrogated | significantly abrogated | – | – | –
3 | bisindolylmaleimide [BIM] | – | – | – | – | – | – | – | – | – | – | – | significantly abrogated | significantly abrogated | –
4 | C#CCN(C)Cc1ccccc1 [Pargyline, pargyline] | significant knockdown | – | significant knockdown | – | significant knockdown | significant knockdown | significant knockdown | significantly abrogated | significantly abrogated | significantly abrogated | significantly abrogated | – | – | –
5 | CC(C)[C@@](C)(O)[C@@H]1CN(c2nc(-c3n[nH]c4ncccc34)c(F)cc2Cl)CCN1 [Peptide C27, (R)-2-((S)-4-(3-chloro-5-fluoro-6-(1H-pyrazolo[3,4-b]pyridine-3-yl)pyridine-2-yl)piperazin-2-yl)-3-methylbutan-2-ol] | – | – | – | – | – | – | – | – | – | – | – | significantly abrogated | significantly abrogated | –
6 | CC(=O)O[C@@]12CO[C@@H]1C[C@H](O)[C@@]1(C)C(=O)[C@H](O)C3=C(C)[C@@H](OC(=O)[C@H](O)[C@@H](NC(=O)OC(C)(C)C)c4ccccc4)C[C@@](O)([C@@H](OC(=O)c4ccccc4)[C@H]21)C3(C)C [Docetaxel] | – | significantly increased | – | significantly increased | – | – | – | – | – | – | – | – | – | MET nuclear expression (TNFI) [17]: significantly increased; SNAIL nuclear fluorescent signal (TNFI) [18]: significantly increased
